# Source: patent US9107928B2, “Compositions and methods for treating ophthalmic disorders” (Dyax Corp., priority 2006, dated 2015)
# Where no end group is shown, it is not given here.
# Assays:
# Assay type in all cases: in vivo
# [1] = tested on: pig model of RVO (branch retinal vein occlusion); assay: Evans Blue dye retinal concentration (extra-cellular retinal oedema) in a pig model of RVO; conditions: 21.2 μg/eye intra-vitreally immediately following RVO, 24 h following RVO, p<0.01
# Procedure: The amount of Evans Blue dye concentration into the retinal tissue reflects plasma extravasation and the extent of oedema. Control values represent retina Evans Blue Dye content of 2 eyes that were left non-operated and non-treated whilst sham-operated eyes (n=4) were submitted to the surgical procedure but without occlusion (See Methods). Values are mean±s.e.mean. Comparison of values was performed by a one-way ANOVA following by a student t-test. **, p<0.01
# (§1) Mixed breed (Large White×Landrace×Pietrain) female pigs weighing 50 to 60 kg aged of 5 to 6 months were used. Following intramuscular injection of ketamine (10 mg/kg), azaperone (2 mg/kg) and atropine (0.02 mg/kg), anesthesia was induced by intravenous sodium thiopental (10 mg/kg). After tracheal intubation, anesthesia was maintained with isoflurane (1-2% in 100% O2) using a Hallowell ventilator (15 to 20 rpm; pressure at 20 cmH2O).
# Pupil was dilated by tropicamide. […] Completion of the occlusion was assessed by the complete arrest of blood flow upstream of the occlusion site. […]
# After OCT measurement, each animal received Evans Blue dye at 45 mg/kg i.v. and venous blood samples (approximately 1 ml) were obtained at 15 minutes intervals for 2 hours. […] Evans Blue dye concentration in plasma samples and in retina tissue was measured by spectrophotometry at both 620 nm and 740 nm.
# [2] = tested on: pig model of RVO (branch retinal vein occlusion); assay: OCT-measured maximal retinal thickness in a pig model of RVO; conditions: 21.2 μg/eye intra-vitreally immediately following RVO, 24 h after RVO
# Procedure: Maximal retina thickness was determined 24 h after RVO from Optical Coherence Tomography images. Values are mean±s.e.mean. Comparison of values was performed by a one-way ANOVA following by a student t-test.
# as §1
# (§2) Pupil was dilated by tropicamide. Conjunctival disinsertion was followed by a 0.9 mm sclerotomy, 3 mm from the limbus. The fundus was observed using a plano-concave lens and the axial light of the operating microscope (Microscope OPMI 6-C, Zeiss, Germany). Branch retinal vein occlusion (RVO) of the major temporal vein was performed by transvitreal cauterization using a 300 micron probe (GN 300, Aesculap, Tuttlingen, Germany). Completion of the occlusion was assessed by the complete arrest of blood flow upstream of the occlusion site. Both eyes were submitted to RVO.
# Animals that were submitted to RVO were randomised to receive either the vehicle or the drug (10 to 14 pigs/group). […]
# [3] = tested on: pig model of RVO (branch retinal vein occlusion); assay: Spontaneous retinal vein reperfusion 24 h after RVO in the pig; conditions: 21.2 μg/eye intra-vitreally immediately following RVO
# Procedure: as §1, §2
# Animals that were submitted to RVO were randomised to receive either the vehicle or the drug (10 to 14 pigs/group). Accordingly, 100 μl of SEQ ID No 23 in solution (dosage of 21.2 μg/eye) or of the corresponding vehicle (saline) was injected intra-vitreally, immediately following RVO.
sequence,measurement,setting,value
EAMHSFCAFKADDGPCRAAHPRWFFNIFTRQCEEFIYGGCEGNQNRFESLEECKKMCTRD (cysteine pairing not given here) [SEQ ID No 23],Reduction of Evans Blue dye retinal concentration (extent of extra-cellular oedema),[1],47%
same,Increase of maximal retinal thickness as measured by OCT,[2],did not modify the increase of maximal retinal thickness
same,"% of reperfused retinal vein at 24 h (spontaneous reperfusion, treated eyes)",[3],30%
same,Number of reperfused retinal vein at 24 h,[3]; 13 pigs/26 eyes,8
